pIC50: −log10 of the molar value. The source made the active and inactive calls. The calls are words filed in the database; no cut-off is given here.
Tests used:
ECa-109 cell line [1] = assay: Induction of mitochondrial depolarization in human EC-109 cells assessed as depolarized cell population at 1.5 uM measured after 24 hrs by JC1 dye based flow cytometry (reference value: 4.2 %); format: functional
ECa-109 cell line [2] = assay: Induction of apoptosis in human EC109 cells assessed as increase in cleaved caspase 3 expression at 3 uM incubated for 24 hrs in presence of N-acetylcysteine by Western blot analysis; format: functional, cell-based
ECa-109 cell line [3] = assay: Induction of apoptosis in human EC109 cells assessed as change in Bax expression at 0.75 to 3 uM after 24 hrs by Western blot analysis; format: functional, cell-based; conditions: dose 0.75-3 µM
[4] = Toxicity in nude BALB/c mouse xenografted with human EC109 cells assessed as change in body weight at 20 to 40 mg/kg, ip administered every day for 14 days; format: organism-based; conditions: in vivo, 336 h, dose 20-40 mg/kg, time 14 day
[5] = Toxicity in BALB/c mouse assessed as HGB at 40 mg/kg, ip administered once daily for 14 days (reference value: 153.20 +/- 3.87 g/L); format: organism-based; conditions: in vivo, 336 h, time 14 day
ECa-109 cell line [6] = assay: Induction of apoptosis in human EC109 cells assessed as increase in BimEL expression after 24 hrs by Western blot analysis; format: functional, cell-based
[7] = Toxicity in BALB/c mouse assessed as MCV at 20 mg/kg, ip administered once daily for 14 days (reference value: 49.90 +/- 0.37 fL); format: organism-based; conditions: in vivo, 336 h, time 14 day
ECa-109 cell line [8] = assay: Induction of apoptosis in human EC-109 cells xenografted in BALB/c mouse assessed as change in Bax expression in tumor tissue at 40 mg/kg, ip QD for 14 days by Western blotting analysis relative to control; format: functional, organism-based; conditions: time 14.0 day
ECa-109 cell line [9] = assay: Induction of apoptosis in human EC-109 cells assessed as apoptotic rate at 1.5 uM after 24 hrs by Annexin V-FITC/propidium iodide staining based flow cytometry (reference value: 5.3 %); format: functional
ECa-109 cell line [10] = assay: Antiproliferative activity against human EC109 cells assessed as survival rate preincubated with N-acetylcysteine for 4 hrs followed by compound addition and measured after 24 hrs by SRB assay; format: functional
GES1 = assay: Cytotoxicity against human GES1 cells assessed as reduction in survival rate at 0 to 8 uM by SRB assay; format: cell-based; conditions: ges1, 8 µM, TDE = time-dependent effect, dose 0-8 µM
MGC-803 = assay: Antiproliferative activity against human MGC-803 cells assessed as inhibition of cell growth incubated for 72 hrs by SRB assay; format: functional, cell-based; conditions: MGC-803, 72 h
ECa-109 cell line [11] = assay: Induction of apoptosis in human EC109 cells assessed as increase in intracellular ROS level at 3 uM preincubated with N-acetylcysteine for 4 hrs followed by compound addition and incubated for 24 hrs by DCFH-DA staining based flow cytometry analysis (reference value: 0.6 %); format: functional
ECa-109 cell line [12] = assay: Induction of apoptosis in human EC109 cells assessed as increase in cleaved PARP expression after 24 hrs by Western blot analysis; format: functional, cell-based
ECa-109 cell line [13] = assay: Induction of apoptosis in human EC-109 cells xenografted in BALB/c mouse assessed as increase in phosphorylated ASK1 in tumor tissue at 20 to 40 mg/kg, ip QD for 14 days by Western blotting analysis; format: functional, organism-based; conditions: dose 20-40 mg/kg, time 14.0 day
ECa-109 cell line [14] = assay: Induction of mitochondrial depolarization in human EC-109 cells assessed as depolarized cell population at 3 uM measured after 24 hrs by JC1 dye based flow cytometry (reference value: 4.2 %); format: functional
ECa-109 cell line [15] = assay: Induction of apoptosis in human EC-109 cells assessed as apoptotic rate at 0.75 uM after 48 hrs by Annexin V-FITC/propidium iodide staining based flow cytometry (reference value: 3.2 %); format: functional
ECa-109 cell line [16] = assay: Induction of apoptosis in human EC109 cells assessed as increase in cleaved caspase 3 expression after 24 hrs by Western blot analysis; format: functional, cell-based
ECa-109 cell line [17] = assay: Induction of apoptosis in human EC109 cells assessed as increase in phosphorylated ASK1 expression incubated for 24 hrs by Western blot analysis; format: functional, cell-based
[18] = Toxicity in BALB/c mouse assessed as HGB at 20 mg/kg, ip administered once daily for 14 days (reference value: 153.20 +/- 3.87 g/L); format: organism-based; conditions: in vivo, 336 h, time 14 day
[19] = Toxicity in BALB/c mouse assessed as abnormalities in liver at 20 to 40 mg/kg, ip administered once daily for 14 days by HE staining based assay; format: organism-based; conditions: in vivo, 336 h, dose 20-40 mg/kg, time 14 day
ECa-109 cell line [20] = assay: Induction of apoptosis in human EC109 cells assessed as increase in Bax/Bcl2 ratio at 0.75 to 3 uM after 24 hrs by Western blot analysis; format: functional, cell-based; conditions: dose 0.75-3 µM
ECa-109 cell line [21] = assay: Induction of morphological changes in human EC109 cells assessed as decrease in number of cells in presence of N-acetylcysteine; format: functional, cell-based
ECa-109 cell line [22] = assay: Induction of apoptosis in human EC109 cells assessed as change in phosphorylated MKK4 expression at 3 uM incubated for 24 hrs in presence of N-acetylcysteine by Western blot analysis; format: functional, cell-based
[23] = Toxicity in BALB/c mouse assessed as effect on creatinine content at 20 to 40 mg/kg, ip administered once daily for 14 days; format: organism-based; conditions: in vivo, 336 h, dose 20-40 mg/kg, time 14 day
ECa-109 cell line [24] = assay: Induction of apoptosis in human EC109 cells assessed as increase in BimL expression after 24 hrs by Western blot analysis; format: functional, cell-based
HUVEC = assay: Cytotoxicity against HUVEC assessed as reduction in survival rate after 24 to 72 hrs by SRB assay; format: cell-based; conditions: human, time 24-72 hrs
ECa-109 cell line [25] = assay: Induction of apoptosis in human EC109 cells assessed as change in phosphorylated JNK expression at 3 uM incubated for 24 hrs in presence of N-acetylcysteine by Western blot analysis; format: functional, cell-based
[26] = Toxicity in BALB/c mouse assessed as MCV at 40 mg/kg, ip administered once daily for 14 days (reference value: 49.90 +/- 0.37 fL); format: organism-based; conditions: in vivo, 336 h, time 14 day
ECa-109 cell line [27] = assay: Induction of apoptosis in human EC-109 cells xenografted in BALB/c mouse assessed as increase in Bax/Bcl-2 ratio in tumor tissue at 20 to 40 mg/kg, ip QD for 14 days by Western blotting analysis relative to control; format: functional, organism-based; conditions: dose 20-40 mg/kg, time 14.0 day
[28] = Toxicity in BALB/c mouse assessed as abnormalities in lungs at 20 to 40 mg/kg, ip administered once daily for 14 days by HE staining based assay; format: organism-based; conditions: in vivo, 336 h, dose 20-40 mg/kg, time 14 day
[29] = Toxicity in BALB/c mouse assessed as PLT at 20 mg/kg, ip administered once daily for 14 days (reference value: 788.60 +/- 71.35 10^9/L); format: organism-based; conditions: in vivo, 336 h, time 14 day
ECa-109 cell line [30] = assay: Induction of apoptosis in human EC-109 cells xenografted in BALB/c mouse assessed as decrease in Bcl-2 expression in tumor tissue at 20 to 40 mg/kg, ip QD for 14 days by Western blotting analysis relative to control; format: functional, organism-based; conditions: dose 20-40 mg/kg, time 14.0 day
ECa-109 cell line [31] = assay: Induction of apoptosis in human EC-109 cells xenografted in BALB/c mouse assessed as increase in cytochrome C in tumor tissue at 40 mg/kg, ip QD for 14 days by Western blotting analysis relative to control; format: functional, organism-based; conditions: time 14.0 day
ECa-109 cell line [32] = assay: Induction of apoptosis in human EC109 cells assessed as increase in phosphorylated MKK4 expression incubated for 24 hrs by Western blot analysis; format: functional, cell-based

Structure (SMILES): C=C1C(=O)[C@@]23[C@H](O)C[C@@H]4C(C)(C)CCC[C@@]4(COC(C)=O)[C@@H]2[C@@H](O)C[C@H]1[C@H]3OC(=O)c1ccc(CCl)cc1
- Activity (ECa-109 cell line [1]): 47.1%
- Activity (ECa-109 cell line [2]): inactive
- Activity (ECa-109 cell line [3]): inactive
- Activity [4]: Non-Toxic
- Activity [5]: 144.4 g/L
- Activity (ECa-109 cell line [6]): Dose-dependent effect
- Activity [7]: 49.5 fL
- Activity (ECa-109 cell line [8]): Active
- Activity (ECa-109 cell line [9]): 28.2%
- Activity (ECa-109 cell line [10]): 90%
- inhibition (INH) (GES1): Tde
- pIC50 (MGC-803): 6.70
- Activity (ECa-109 cell line [11]): 0.1%
- Activity (ECa-109 cell line [12]): Dose-dependent effect
- Activity (ECa-109 cell line [13]): Active
- Activity (ECa-109 cell line [14]): 70.7%
- Activity (ECa-109 cell line [15]): 78.9%
- Activity (ECa-109 cell line [16]): Dose-dependent effect
- Activity (ECa-109 cell line [17]): Dose-dependent effect
- Activity [18]: 147 g/L
- Activity [19]: Non-Toxic
- Activity (ECa-109 cell line [20]): Active
- Activity (ECa-109 cell line [21]): inactive
- Activity (ECa-109 cell line [22]): inactive
- Activity [23]: Non-Toxic
- Activity (ECa-109 cell line [24]): Dose-dependent effect
- Activity (HUVEC): Dose-dependent effect
- Activity (ECa-109 cell line [25]): inactive
- Activity [26]: 49.36 fL
- Activity (ECa-109 cell line [27]): Active
- Activity [28]: Non-Toxic
- Activity [29]: 754.8 10^9/L
- Activity (ECa-109 cell line [30]): Active
- Activity (ECa-109 cell line [31]): Active
- Activity (ECa-109 cell line [32]): Dose-dependent effect

— ChEMBL document CHEMBL4706557, “Synthesis and in vitro and in vivo biological evaluation of novel derivatives of flexicaulin A as antiproliferative agents” (Eur J Med Chem, 2020)
